Data taken from patent US9695155B2, “Herbicidal substituted pyrimidinyloxy benzene compounds” (E. I. DU PONT DE NEMOURS AND COMPANY, priority 2013, dated 2017).

What was measured:
soybean = assay: Test E preemergence; assay type: in vivo, Glycine max; conditions: for Soybean plant response rating: scale 0 to 100 (0 no effect, 100 complete control); for Plant response rating, Soybean: scale 0 to 100, 0 no effect, 100 complete control
Method in brief: (§1)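 Response was scored visually on a 0-100 scale (100 = complete control) versus controls after 14 to 21 days in the greenhouse. Test chemicals, formulated with surfactant in a non-phytotoxic solvent mixture, had been applied preemergence to seeds in silt loam soil or postemergence to 1- to 4-leaf plants in potting medium.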

green foxtail = assay: Test E preemergence; assay type: in vivo, Setaria viridis; conditions: for Foxtail, Green plant response rating: scale 0 to 100 (0 no effect, 100 complete control); for Plant response rating, Foxtail, Green: scale 0 to 100, 0 no effect, 100 complete control
Method in brief: as §1

sedge, umbrella = assay: Test C flooded paddy test; assay type: in vivo, Cyperus difformis; conditions: Flood, scale 0 to 100 (0 no effect, 100 complete control), 13 to 15 days
Method in brief: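 Greenhouse pots flooded to 3 cm above soil at time of treatment received compound via the water, which stayed at that level.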

corn = assay: Test E preemergence; assay type: in vivo, Zea mays; conditions: for Corn plant response rating: scale 0 to 100 (0 no effect, 100 complete control); for Plant response rating, Corn: scale 0 to 100, 0 no effect, 100 complete control
Method in brief: as §1

kochia = assay: Test E preemergence; assay type: in vivo, Kochia scoparia; conditions: for Kochia plant response rating: scale 0 to 100 (0 no effect, 100 complete control); for Plant response rating, Kochia: scale 0 to 100, 0 no effect, 100 complete control
Method in brief: as §1

palmer pigweed = assay: Test E preemergence; assay type: in vivo, Amaranthus palmeri; conditions: for Pigweed, Palmer plant response rating: scale 0 to 100 (0 no effect, 100 complete control); for Plant response rating, Pigweed, Palmer: scale 0 to 100, 0 no effect, 100 complete control
Excerpt: Seeds of plant species selected from corn (Zea mays), soybean (Glycine max), velvetleaf (Abutilon theophrasti), lambsquarters (Chenopodium album), wild poinsettia (Euphorbia heterophylla), palmer pigweed (Amaranthus palmeri), waterhemp (common waterhemp, Amaranthus rudis), surinam grass (Brachiaria decumbens), large (Lg) crabgrass (Digitaria sanguinalis), Brazilian crabgrass (Digitaria horizontalis), fall panicum (Panicum dichotomiflorum), giant foxtail (Setaria faberii), green foxtail (Setaria viridis), goosegrass (Eleusine indica), johnsongrass (Sorghum halepense), ragweed (common ragweed, Ambrosia elatior), barnyardgrass (Echinochloa crus-galli), sandbur (southern sandbur, Cenchrus echinatus), arrowleaf sida (Sida rhombifolia), Italian ryegrass (Lolium multiflorum), dayflower (Virginia (VA) dayflower, Commelina virginica), field bindweed (Convolvulus arvensis), morningglory (Ipomoea coccinea), nightshade (eastern black nightshade, Solanum ptycanthum), kochia (Kochia scoparia), yellow nutsedge (Cyperus esculentus), cocklebur (common cocklebur, Xanthium strumarium), smartweed (ladysthumb smartweed, and hairy beggarticks (Bidens pilosa), were planted into a silt loam soil and treated preemergence with test chemicals formulated in a non-phytotoxic solvent mixture which included a surfactant.
At the same time, plants from these crop and weed species and also horseweed (Canada horseweed, Conyza canadensis), waterhemp_RES1, (ALS & Triazine resistant common waterhemp, Amaranthus rudis), and waterhemp_RES2, (ALS & HPPD resistant common waterhemp, Amaranthus rudis) were planted in pots containing Redi-Earth® planting medium (Scotts Company, 14111 Scottslawn Road, Marysville, Ohio 43041) comprising spaghnum peat moss, vermiculite, wetting agent and starter nutrients were treated with postemergence applications of test chemicals formulated in the same manner. Plants ranged in height from 2 to 18 cm for postemergence treatments (1- to 4-leaf stage). Treated plants and controls were maintained in a greenhouse for 14 to 21 days, after which time all species were compared to controls and visually evaluated. Plant response ratings, summarized in Table E, are based on a scale of 0 to 100 where 0 is no effect and 100 is complete control. A dash (-) response means no test result.

Italian ryegrass = assay: Test E preemergence; assay type: in vivo, Lolium multiflorum; conditions: for Ryegrass, Italian plant response rating: scale 0 to 100 (0 no effect, 100 complete control); for Plant response rating, Ryegrass, Italian: scale 0 to 100, 0 no effect, 100 complete control
Method in brief: as §1

waterhemp = assay: Test E preemergence; assay type: in vivo, Amaranthus rudis; conditions: for Waterhemp plant response rating: scale 0 to 100 (0 no effect, 100 complete control); for Plant response rating, Waterhemp: scale 0 to 100, 0 no effect, 100 complete control
Method in brief: as §1

ragweed = assay: Test A postemergence; assay type: in vivo, Ambrosia elatior
Method in brief: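 Compounds in non-phytotoxic solvent with surfactant applied as soil spray preemergence, or postemergence to plants 2-10 cm at one- to two-leaf stage, in loam/sand. After approximately 10 days in greenhouse, injury rated visually versus untreated controls, 0 (no effect) to 100 (complete control).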

[1] = 125 g ai/ha, 0 to 100 scale where 0 is no effect and 100 is complete control
[2] = 500 g ai/ha, 0 to 100 scale where 0 is no effect and 100 is complete control
[3] = 31 g ai/ha, 0 to 100 scale, 0 no effect, 100 complete control

Row | SMILES | Soybean plant response rating (soybean; 31 g ai/ha) | Plant response rating, Soybean (soybean; 125 g ai/ha) | Foxtail, Green plant response rating (green foxtail; 16 g ai/ha) | Foxtail, Green plant response rating (green foxtail; 31 g ai/ha) | Foxtail, Green plant response rating (green foxtail; 62 g ai/ha) | Plant response rating, Foxtail, Green (green foxtail; 125 g ai/ha) | Corn plant response rating (corn; 16 g ai/ha) | Corn plant response rating (corn; 31 g ai/ha) | Corn plant response rating (corn; 62 g ai/ha) | Plant response rating, Corn (corn; 125 g ai/ha) | Kochia plant response rating (kochia; 31 g ai/ha) | Kochia plant response rating (kochia; 62 g ai/ha) | Plant response rating, Kochia (kochia; 125 g ai/ha) | Pigweed, Palmer plant response rating (palmer pigweed; 31 g ai/ha) | Pigweed, Palmer plant response rating (palmer pigweed; 62 g ai/ha) | Plant response rating, Pigweed, Palmer (palmer pigweed; 125 g ai/ha) | Ryegrass, Italian plant response rating (Italian ryegrass; 31 g ai/ha) | Ryegrass, Italian plant response rating (Italian ryegrass; 62 g ai/ha) | Plant response rating, Ryegrass, Italian (Italian ryegrass; 125 g ai/ha) | Waterhemp plant response rating (waterhemp; 31 g ai/ha) | other results
1 | N#Cc1cccc(Oc2ncc(Br)cn2)c1-n1cc(C(F)(F)F)cn1 [Compound 59, 3-[(5-bromo-2-pyrimidinyl)oxy]-2-[4-(trifluoromethyl)-1H-pyrazol-1-yl]benzonitrile] | 0 | 50 | 0 | 60 | 100 | 100 | 0 | 0 | 0 | 30 | 80 | 100 | 100 | 100 | 100 | 100 | 0 | 50 | 75 | 100 | Soybean plant response rating (soybean; 16 g ai/ha): 0; Plant response rating, Soybean (soybean; 250 g ai/ha): 95; Plant response rating, Foxtail, Green (green foxtail; 250 g ai/ha): 100; Plant response rating, Sedge, Umbrella (sedge, umbrella; 31 g ai/ha): 60; Plant response rating, Sedge, Umbrella (sedge, umbrella; 62 g ai/ha): 80; Plant response rating, Sedge, Umbrella (sedge, umbrella; 125 g ai/ha): 90; Plant response rating, Sedge, Umbrella (sedge, umbrella; 250 g ai/ha): 95; Plant response rating, Corn (corn; 250 g ai/ha): 50; Kochia plant response rating (kochia; 16 g ai/ha): 20; Plant response rating, Kochia (kochia; 250 g ai/ha): 100; Pigweed, Palmer plant response rating (palmer pigweed; 16 g ai/ha): 35; Plant response rating, Pigweed, Palmer (palmer pigweed; 250 g ai/ha): 100; Ryegrass, Italian plant response rating (Italian ryegrass; 16 g ai/ha): 0; Plant response rating, Ryegrass, Italian (Italian ryegrass; 250 g ai/ha): 95; Waterhemp plant response rating (waterhemp; 16 g ai/ha): 100; Waterhemp plant response rating (waterhemp; 62 g ai/ha): 100; Plant response rating, Waterhemp (waterhemp; 125 g ai/ha): 100; Plant response rating, Waterhemp (waterhemp; 250 g ai/ha): 100
2 | N#Cc1cccc(Oc2ncc(Br)cn2)c1-n1cc(I)cn1 [Compound 88] | 0 | 20 | 0 | 0 | 0 | 35 | 0 | 0 | 35 | 35 | 0 | 35 | 50 | 0 | 0 | 75 | 0 | 0 | 0 | 35 | Soybean plant response rating (soybean; 16 g ai/ha): 35; Soybean plant response rating (soybean; 62 g ai/ha): 20; Plant response rating, Ragweed (ragweed; [1]): 10; Plant response rating, Ragweed (ragweed; [2]): 30; Kochia plant response rating (kochia; 16 g ai/ha): 0; Pigweed, Palmer plant response rating (palmer pigweed; 16 g ai/ha): 0; Ryegrass, Italian plant response rating (Italian ryegrass; 16 g ai/ha): 0; Waterhemp plant response rating (waterhemp; 16 g ai/ha): 20; Waterhemp plant response rating (waterhemp; 62 g ai/ha): 35; Plant response rating, Waterhemp (waterhemp; 125 g ai/ha): 100
3 | FC(F)(F)COc1cnn(-c2ccccc2Oc2ncc(Cl)cn2)c1 [Compound 138, 5-chloro-2-[2-[4-(2,2,2-trifluoroethoxy)-1H-pyrazol-1-yl]phenoxy]pyrimidine] | 0 | 35 | 0 | 0 | 20 | 98 | 0 | 0 | 15 | 35 | 75 | 90 | 100 | 70 | 75 | 70 | 0 | 0 | 20 | 100 | Soybean plant response rating (soybean; 16 g ai/ha): 0; Ragweed plant response rating (ragweed; [1]): 30; Plant response rating, Ragweed (ragweed; [2]): 60; Kochia plant response rating (kochia; 16 g ai/ha): 60; Pigweed, Palmer plant response rating (palmer pigweed; 16 g ai/ha): 0; Ryegrass, Italian plant response rating (Italian ryegrass; 16 g ai/ha): 0; Waterhemp plant response rating (waterhemp; 16 g ai/ha): 0; Waterhemp plant response rating (waterhemp; 62 g ai/ha): 90; Plant response rating, Waterhemp (waterhemp; 125 g ai/ha): 100
4 | N#Cc1cnn(-c2c(CF)cccc2Oc2ncc(F)cn2)c1 [Compound 151] | 30 | 75 | 20 | 20 | 70 | 75 | 0 | 0 | 0 | 0 | 80 | 90 | 100 | 100 | 100 | 100 | 10 | 10 | 65 | 75 | Plant response rating, Ragweed (ragweed; [3]): 50; Ragweed plant response rating (ragweed; [1]): 100; Waterhemp plant response rating (waterhemp; 62 g ai/ha): 98; Plant response rating, Waterhemp (waterhemp; 125 g ai/ha): 100
5 | FCc1cccc(Oc2ncc(Cl)cn2)c1-n1cc(Cl)cn1 [Compound 250] | 0 | 65 | 0 | 0 | 0 | 90 | 0 | 0 | 0 | 20 | 0 | 0 | 98 | 0 | 0 | 100 | 0 | 0 | 0 | 0 | Soybean plant response rating (soybean; 62 g ai/ha): 15; Plant response rating, Ragweed (ragweed; [3]): 50; Plant response rating, Ragweed (ragweed; 125 g ai/ha, 0 to 100 scale, 0 no effect, 100 complete control): 100; Waterhemp plant response rating (waterhemp; 62 g ai/ha): 0; Plant response rating, Waterhemp (waterhemp; 125 g ai/ha): 100
